What is called EC50 is the concentration giving half of the maximal effect.

Consider twelve molecules from patent US6444685B1, “N-(4-sulfonylaryl)Cyclylamine 2-hydroxyethylamines as beta-3 adrenergic receptor agonists” (Wyeth, priority 2000, dated 2002).

The structures appear in SMILES notation.

What all share (format): cell-based
For test [1], the target named is T1, human β2-adrenergic receptor (Homo sapiens, UniProt P07550).
T1 construct: expressed in transfected cells; host or cells: CHO cells
T1 sequence (P07550 whole entry): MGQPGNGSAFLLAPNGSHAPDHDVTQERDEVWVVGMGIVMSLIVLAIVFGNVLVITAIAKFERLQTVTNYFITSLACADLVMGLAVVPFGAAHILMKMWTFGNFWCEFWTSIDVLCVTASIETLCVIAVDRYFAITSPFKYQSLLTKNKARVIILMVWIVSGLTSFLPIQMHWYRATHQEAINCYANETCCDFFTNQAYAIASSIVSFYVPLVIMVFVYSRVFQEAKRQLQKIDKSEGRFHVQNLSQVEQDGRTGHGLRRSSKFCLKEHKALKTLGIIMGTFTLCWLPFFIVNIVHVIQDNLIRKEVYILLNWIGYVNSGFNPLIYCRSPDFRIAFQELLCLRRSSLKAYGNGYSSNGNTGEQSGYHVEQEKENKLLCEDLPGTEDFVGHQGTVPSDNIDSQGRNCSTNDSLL
Put plainly: cAMP accumulation (SPA) in CHO cells transfected with human β2 adrenergic receptor. The following applies: for beta-2 (IA) maximal response relative to isoproterenol: IA = % activity compound / % activity isoproterenol at 10^−5 M, CHO human β2 cells; for EC50: CHO cells transfected with human β2-AR, cAMP, 15 min incubation, 10^−8 to 10^−4 M, read-out: beta-2 EC50. The procedure:
(§1) The ability of compounds of this invention to treat or inhibit disorders related to insulin resistance or hyperglycemia was established with representative compounds of this invention in the following standard pharmacological test procedures, which measured the binding selectivity to the β1, β2, and β3 adrenergic receptors. Binding to the receptors was measured in Chinese Hamster ovary (CHO) cells that were transfected with adrenergic receptors. The following briefly summarizes the procedures used and results obtained.
(§2) Transfection of CHO cells with β1 and β2 adrenergic receptors: CHO cells were transfected with human β1- or β2-adrenergic receptors as described in Tate, K. M., Eur. J. Biochem., 196:357-361 (1991).
(§3) Binding Procedure: Clones expressing receptor levels of 70 to 110 fmoles/mg protein were used in the test procedures. CHO cells were grown in 24-well tissue culture plates in Dulbecco's Modified Eagle Media with 10% fetal bovine serum, MEM non-essential amino acids, Penicillin-Streptompycin and Geneticin. On the day of test procedure, growth medium was replaced with preincubation media (Dulbecco's Modified Eagle Media and incubated for 30 minutes at 37° C. Preincubation medium was replaced with 0.2 ml treatment medium containing DMEM media containing 250 μM IBMX (isobutyl-1-methylxantine) plus 1 mM ascorbic acid with test compound dissolved in DMSO. Test compounds were tested over a concentration range of 10^−9 M to 10^−5 M for β3 cells and 10^−8 to 10^−4 M for β1 and β2 transfected cells. Isoproterenol (10^−5 M) was used as an internal standard for comparison of activity. Cells were incubated at 37° C. on a rocker for 30 min with the β3 cells and 15 min for β1 and β2 cells. Incubation was stopped with the addition of 0.2N HCl and neutralized with 2.5N NaOH. The plates, containing the cells and neutralized media, were stored at −20 degrees celsius until ready to test for cAMP using the SPA test kit (Amersham).
(§4) Data Analysis and Results: Data collected from the SPA test procedure were analyzed as per cent of the maximal isoproterenol response at 10^−5 M. Activity curves were plotted using the SAS statistical and graphics software. EC50 values were generated for each compound and the maximal response (IA) developed for each compound is compared to the maximal response of isoproternol at 10^−5 M from the following formula:
(§5) IA=% activity compound/% activity isoproterenol
In general terms: cAMP levels reflect the balance of adenylyl cyclase and phosphodiesterase activity.

The target of test [2] is T2, human β3 adrenergic receptor (Homo sapiens, UniProt P13945).
T2 construct: Full length β3 AR clones (402 amino acids) containing the last 6 amino acids of hβ3— AR are prepared; expressed in transfected cells; host or cells: CHO cells
T2 sequence (P13945 whole entry): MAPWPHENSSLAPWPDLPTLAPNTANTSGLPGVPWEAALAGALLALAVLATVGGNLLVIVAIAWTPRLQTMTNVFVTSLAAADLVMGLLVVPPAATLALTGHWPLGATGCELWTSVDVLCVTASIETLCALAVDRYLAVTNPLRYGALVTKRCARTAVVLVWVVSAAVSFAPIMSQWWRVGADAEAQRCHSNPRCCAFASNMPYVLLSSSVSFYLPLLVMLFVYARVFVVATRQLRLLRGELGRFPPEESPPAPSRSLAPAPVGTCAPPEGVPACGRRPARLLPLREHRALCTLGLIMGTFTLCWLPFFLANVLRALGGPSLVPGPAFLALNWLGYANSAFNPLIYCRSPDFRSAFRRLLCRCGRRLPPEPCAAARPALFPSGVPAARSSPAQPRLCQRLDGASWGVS
Put plainly: cAMP accumulation (SPA) in CHO cells transfected with human β3 adrenergic receptor. The following applies: for EC50: CHO cells expressing human β3-AR, cAMP, 30 min incubation, 10^−9 M to 10^−5 M, read-out: beta-3 EC50; for beta-3 (IA) maximal response relative to isoproterenol: IA = % activity compound / % activity isoproterenol at 10^−5 M, CHO human β3 cells. The procedure:
as §1
Cloning of Human β3-AR Genomic DNA: cDNA was constructed by ligating four polymerase chain reaction (PCR) products using the following primers: an ATG-Narl fragment, sense primer 5′-[…]3′ and anti-sense primer 5′[…]3′; a Narl-Accl fragment, 5′[…]3′ as sense and 5′[…]3′ as anti-sense primer; an Accli-Styl fragment, sense primer 5′[…]3′ and anti-sense primer 5′[…]3′ and a Styl-TAG fragment, with sense primer 5′[…]3′ and anti-sense primer 5′[…]3′. The corresponding primer sequences are described in Mantzoros, C. S., et.al., Diabetes 45: 909-914 (1996). The four fragments are ligated into a pUC 18 plasmid (Gibco-BRL) and sequenced. Full length β3 AR clones (402 amino acids) containing the last 6 amino acids of hβ3— AR are prepared with the β3-βARpcDNA3from ATTC.
as §3, §4, §5

Test [3] addresses T3, human β1-adrenergic receptor (Homo sapiens, UniProt P08588).
T3 construct: expressed in transfected cells; host or cells: CHO cells
Put plainly: cAMP accumulation (SPA) in CHO cells transfected with human β1 adrenergic receptor. The following applies: for beta-1 (IA) maximal response relative to isoproterenol: IA = % activity compound / % activity isoproterenol at 10^−5 M, CHO human β1 cells; for EC50: CHO cells transfected with human β1-AR, cAMP, 15 min incubation, 10^−8 to 10^−4 M, read-out: beta-1 EC50. The procedure: as §1, §2, §3, §4, §5

T3 sequence (P08588 whole entry): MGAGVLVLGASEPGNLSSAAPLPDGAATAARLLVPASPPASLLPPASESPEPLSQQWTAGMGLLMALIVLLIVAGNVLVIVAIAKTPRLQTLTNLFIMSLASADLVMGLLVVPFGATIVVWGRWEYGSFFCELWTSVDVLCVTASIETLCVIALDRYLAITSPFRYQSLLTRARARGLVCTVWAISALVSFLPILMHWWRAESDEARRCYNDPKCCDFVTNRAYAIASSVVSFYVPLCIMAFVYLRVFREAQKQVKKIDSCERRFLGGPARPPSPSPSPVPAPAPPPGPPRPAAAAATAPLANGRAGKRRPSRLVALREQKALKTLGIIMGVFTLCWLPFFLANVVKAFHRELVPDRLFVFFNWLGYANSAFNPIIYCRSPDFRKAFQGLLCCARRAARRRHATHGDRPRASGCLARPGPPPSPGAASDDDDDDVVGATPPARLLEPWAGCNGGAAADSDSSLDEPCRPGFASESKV

Regarding `COc1ccc(N(Cc2ccccc2)S(=O)(=O)c2ccc(N3CCC(NCC(O)COc4cccc5[nH]c(=O)[nH]c45)CC3)cc2)cc1OC` (centres unmarked) [Example 1, N-Benzyl-N-(3,4-dimethoxy-phenyl)-4-{4-[2-hydroxy-3-(2-oxo-2,3-dihydro-1H-benzoimidazol-4-yloxy)-propylamino]-piperidin-1-yl}-benzenesulfonamide], the “beta-2 (IA) maximal response relative to isoproterenol” value in test [1] is reported as “(0)”. Also, in test [2], the concentration giving a half-maximal response (EC50) stood at 0.017 µM and the “beta-3 (IA) maximal response relative to isoproterenol” value is listed as “(0.92)”. In addition, the “beta-1 (IA) maximal response relative to isoproterenol” value in test [3] was “(0.09)”.
As to `COc1ccc(NS(=O)(=O)c2ccc(N3CCC(NC[C@H](O)COc4cccc5[nH]c(=O)[nH]c45)CC3)cc2)cc1OC` [Example 7, N-(3,4-Dimethoxy-phenyl)-4-{4-[(2S)-2-hydroxy-3-(2-oxo-2,3-dihydro-1H-benzoimidazol-4-yloxy)-propylamino]-piperidin-1-yl}-benzenesulfonamide], in test [1], the “beta-2 (IA) maximal response relative to isoproterenol” value is given as “(0.01)”. Besides, in test [2], the EC50 was found to be 0.02 µM and the “beta-3 (IA) maximal response relative to isoproterenol” value is given as “(0.8)”. Further, in test [3], the half-maximal effective concentration (EC50) was 0.6 µM and the “beta-1 (IA) maximal response relative to isoproterenol” value is given as “(0.15)”.
In the case of `CS(=O)(=O)Nc1cc(C(O)CNC2CCN(c3ccc(S(=O)(=O)N4CCCC4C(=O)O)cc3)CC2)ccc1O` (centres unmarked) [Example 18, 1-(4-{4-[2-Hydroxy-2-(4-hydroxy-3-methanesulfonylamino-phenyl)-ethylamino]-piperidin-1-yl}-benzenesulfonyl)-pyrrolidine-2-carboxylic Acid], in test [1], the EC50 was 1 µM and the “beta-2 (IA) maximal response relative to isoproterenol” value is “(0.55)”. Also, in test [2], the EC50 was found to be 0.041 µM and the “beta-3 (IA) maximal response relative to isoproterenol” value is given as “(0.99)”. The “beta-1 (IA) maximal response relative to isoproterenol” value in test [3] is “(0.29)”.
`CCOC(=O)[C@H]1CCCN1S(=O)(=O)c1ccc(N2CCC(NC[C@H](O)c3ccc(O)c(NS(C)(=O)=O)c3)CC2)cc1` [Example 30, 1-(4-{4-[(2R)-2-Hydroxy-2-(4-hydroxy-3-methanesulfonylamino-phenyl)-ethylamino]-piperidin-1-yl}-benzenesulfonyl)-pyrrolidine-(2R)-2-carboxylic Acid Ethyl Ester]: in test [1], the EC50 stood at 3.6 µM and the “beta-2 (IA) maximal response relative to isoproterenol” value is “(0.36)”. In test [2], the half-maximal effective concentration (EC50) stood at 0.004 µM and the “beta-3 (IA) maximal response relative to isoproterenol” value is recorded as “(1.2)”. In test [3], the concentration for a half-maximal effect (EC50) is 9.8 µM and the “beta-1 (IA) maximal response relative to isoproterenol” value was “(1.1)”.
In the case of `CCCCN(Cc1ccccc1)S(=O)(=O)c1ccc(N2CCC(NCC(O)c3ccc(O)c(NS(C)(=O)=O)c3)CC2)cc1` (centres unmarked) [Example 3, N-Benzyl-N-butyl-4-{4-[2-hydroxy-2-(4-hydroxy-3-methanesulfonylamino-phenyl)-ethylamino]-piperidin-1-yl}-benzenesulfonamide], in test [1], the EC50 was found to be 0.31 µM and the “beta-2 (IA) maximal response relative to isoproterenol” value was “(0.59)”. Further, in test [2], the concentration giving a half-maximal response (EC50) turned out to be 0.015 µM and the “beta-3 (IA) maximal response relative to isoproterenol” value is reported as “(1.1)”. For the same molecule, in test [3], the concentration giving a half-maximal response (EC50) worked out at 2.1 µM and the “beta-1 (IA) maximal response relative to isoproterenol” value was “(0.66)”.
Turning to `CS(=O)(=O)Nc1cc([C@@H](O)CNC2CCN(c3ccc(S(=O)(=O)N4CCC[C@H]4C(=O)O)cc3)CC2)ccc1O` [Example 39, (2S)-1-[(4-{4-[((2R)-2-Hydroxy-2-{4-hydroxy-3-[(methylsulfonyl)amino]-phenyl}ethyl)amino]-1-piperidinyl}phenyl)sulfonyl]-2-pyrrolidinecarboxylic Acid], the “beta-2 (IA) maximal response relative to isoproterenol” value in test [1] is “(0.23)”. Further, in test [2], the EC50 turned out to be 0.03 µM and the “beta-3 (IA) maximal response relative to isoproterenol” value is “(1)”. For the same molecule, in test [3], the EC50 amounted to 10 µM and the “beta-1 (IA) maximal response relative to isoproterenol” value is listed as “(0.42)”.
Turning to `CS(=O)(=O)Nc1cc([C@@H](O)CNC2CCN(c3ccc(S(=O)(=O)NCC(=O)O)cc3)CC2)ccc1O` [Example 53, 2-{[(4-{4-[((2R)-2-hydroxy-2-{4-hydroxy-3-[(methylsulfonyl)amino]phenyl}ethyl)amino]-1-piperidinyl}phenyl)sulfonyl]amino}acetic Acid], the “beta-2 (IA) maximal response relative to isoproterenol” value in test [1] is reported as “(0.23)”. In test [2], the half-maximal effective concentration (EC50) is 0.034 µM and the “beta-3 (IA) maximal response relative to isoproterenol” value is recorded as “(1.2)”. In test [3], the “beta-1 (IA) maximal response relative to isoproterenol” value is “(0.24)”.
Regarding `CCOC(=O)[C@@H](NS(=O)(=O)c1ccc(N2CCC(NC[C@H](O)c3ccc(O)c(NS(C)(=O)=O)c3)CC2)cc1)C(C)C` [Example 38, Ethyl (2S)-2-{[(4-{4-[((2R)-2-hydroxy-2-{4-hydroxy-3-[(methylsulfonyl)amino]-phenyl}ethyl)amino]-1-piperidinyl}phenyl)sulfonyl]amino}-3-methylbutanoate], in test [1], the EC50 amounted to 0.38 µM and the “beta-2 (IA) maximal response relative to isoproterenol” value is reported as “(0.32)”. In addition, in test [2], the 50% effective concentration (EC50) turned out to be 0.032 µM and the “beta-3 (IA) maximal response relative to isoproterenol” value is listed as “(1.1)”. Moreover, in test [3], the EC50 was 1.1 µM and the “beta-1 (IA) maximal response relative to isoproterenol” value was “(0.5)”.
Regarding `CCCCN(Cc1ccccc1)S(=O)(=O)c1ccc(N2CCC(NC[C@H](O)COc3cccc4[nH]c(=O)[nH]c34)CC2)cc1` [Example 2, N-Benzyl-N-butyl-4-{4-[(2S)-2-hydroxy-3-(2-oxo-2,3-dihydro-1H-benzoimidazol-4-yloxy)-propylamino]-piperidin-1-yl}-benzenesulfonamide], the “beta-2 (IA) maximal response relative to isoproterenol” value in test [1] is reported as “(0.03)”. In addition, in test [2], the EC50 was 0.094 µM and the “beta-3 (IA) maximal response relative to isoproterenol” value is “(1.1)”. In addition, the “beta-1 (IA) maximal response relative to isoproterenol” value in test [3] was “(0.16)”.
On to `CCOC(=O)CN(CC(C)C)S(=O)(=O)c1ccc(N2CCC(NC[C@H](O)c3ccc(O)c(NS(C)(=O)=O)c3)CC2)cc1` [Example 32, [(4-{4-[(2R)-2-Hydroxy-2-(4-hydroxy-3-methanesulfonylamino-phenyl)-ethylamino]-piperidin-1-yl}-benzenesulfonyl)-isobutyl-amino]-acetic Acid Ethyl Ester], for which, in test [1], the EC50 came to 10 µM and the “beta-2 (IA) maximal response relative to isoproterenol” value is “(0.57)”. Further, in test [2], the concentration for a half-maximal effect (EC50) amounted to 0.004 µM and the “beta-3 (IA) maximal response relative to isoproterenol” value is recorded as “(1)”. For the same molecule, in test [3], the concentration for a half-maximal effect (EC50) amounted to 6.7 µM and the “beta-1 (IA) maximal response relative to isoproterenol” value is given as “(0.48)”.
`CS(=O)(=O)Nc1cc([C@@H](O)CNC2CCN(c3ccc(S(=O)(=O)N4CCCCC4)cc3)CC2)ccc1O` [Example 42, N-{2-Hydroxy-5-[(1R)-1-hydroxy-2-({1-[4-(1-piperidinylsulfonyl)phenyl]-piperidinyl}-4-amino)ethyl]phenyl}methanesulfonamide]: in test [1], the EC50 amounted to 0.37 µM and the “beta-2 (IA) maximal response relative to isoproterenol” value is “(0.35)”. In test [2], the EC50 was determined as 0.001 µM and the “beta-3 (IA) maximal response relative to isoproterenol” value is “(1)”. In addition, in test [3], the concentration giving a half-maximal response (EC50) came to 1.32 µM and the “beta-1 (IA) maximal response relative to isoproterenol” value is on record as “(0.69)”.
`CS(=O)(=O)Nc1cc([C@@H](O)CNC2CCN(c3ccc(S(=O)(=O)N4CCN(CC(=O)O)CC4)cc3)CC2)ccc1O` [Example 65]: in test [1], the EC50 came to 16 µM and the “beta-2 (IA) maximal response relative to isoproterenol” value is on record as “(0.67)”. For the same molecule, in test [2], the 50% effective concentration (EC50) was 0.16 µM and the “beta-3 (IA) maximal response relative to isoproterenol” value is recorded as “(0.93)”. In addition, in test [3], the “beta-1 (IA) maximal response relative to isoproterenol” value was “(0.23)”.
